From patent US20110201105A1, “LACTATION-ASSOCIATED POLYPEPTIDES” (Dairy Australia Limited, priority 2007, published 2011)

Legend:
[1] = test system: HSC-2 oral epithelial cells; test: Cell viability assay to assess anti- and pro-apoptotic effects (vinblastine, Alamar Blue); type: cell-based; conditions: HSC-2 cells
Procedure: Plasmids containing Tammar wallaby LAMs were directionally cloned into the expression vector pCMV Sport 6.0, and then transfected into the human kidney cell line HK293. A total of 1 μg of LAM-containing plasmid DNA and 10 ng of pEGFP-C1 plasmid was introduced into 70% confluent HK293 cells in 2 cm^2 wells containing 500 ul of opti-MEM-1 media. Transfection success was assessed by observing green fluorescence of cells by fluorescent microscopy. After 48 hours conditioned media containing the secreted polypeptide was collected and frozen at −20° C. The media containing the secreted polypeptides was then used directly in a variety of bioactivity assays. For the assays described below, samples of secreted polypeptides were aliquoted into individual wells of 96 or 384 well plates and stored, prior to assaying, either frozen or lyophilized.
A negative control created by transfection with an insertless vector was used in all assays. For the assays described in Examples 4A, 4B, 4C and 4D results for samples were in the form of relative fluorescence units (RFU) as described herein. […] In some cases, RFU less than two standard deviations from the mean were considered significant if the LAM sample in question produced a positive result in another assay.
Vinblastine is a commonly used cytotoxic agent used in chemotherapy. It induces apoptosis in a wide variety of cell types. Caspase activation and DNA fragmentation are hallmarks of the apoptotic process.
Aliquots of the secreted polypeptide samples in 96 well plates were pipetted onto HSC-2 oral epithelial cells and the cells left for 24 hours. After this time, the cells were treated with vinblastine to induce apoptosis. After a further 48 hours, the cells were analyzed for survival using a vital dye, namely Alamar Blue (resazurin) fluorescent dye (TGR BioSciences Pty Ltd, Adelaide, Australia). This dye method is a TGR proprietary assay technology and as such would be known by a person skilled in the art. Internal controls for induction of cell death via apoptosis as well as assay performance were also included on each plate. Cell survival measurements with this technique reflected the degree of apoptosis.

MDA-MB-231 cells = test: MDA-MD-231 Matrigel outgrowth assay; type: cell-based; conditions: MDA-MB-231 cells on Matrigel, after 5 days, compared to control (OPTIMEM)
Procedure: FIG. 14: Matrigel outgrowth assay. Monolayers of cells (MDA-MD-MB231) were grown to 80% confluence and collected during log phase. 5×10^3 cells were added per well (96 well format) on top of preset Matrigel (50 ul). 50 ul of bioactive supematant was added per well. Colony outgrowth was monitored over the course of the experiment and photographed after 2 (FIG. 14A) and 5 (FIG. 14B) days.
Monolayers of cells (MDA-MD-MB231) were grown in DMEM+10% FCS to 80% confluence and collected during log phase. Cells were removed from plastic using versene/trypsin (2 min/370C) and resuspended in 10 ml media. Cell were washed thrice with PBS and centrifugation. 5×10^3 cells were added per well (96 well format) on top of preset Matrigel (50 ul). 50 ul of bioactive supernatant was added per well. Colony outgrowth was monitored over the course of the experiment and photographed after 2 and 5 days.

LAM 13: PLA2G1B; tammar wallaby polypeptide SEQ ID NO 43, bovine polypeptide SEQ ID NO 103
RFU (anti-apoptotic activity) ([1]; vinblastine, Alamar Blue, Mean RFU 679787, SD RFU 39919, negative control 696444 RFU): 779746 RFU
anti- or pro-apoptotic activity (RFU versus mean) ([1]; text summary of Tables 8-11): anti-apoptotic activity
proliferation of cells (MDA-MB-231 cells): increased proliferation of cells
